Assay results: patent publication US5698691A, “Condensed cyclic compounds and their use” (Takeda Chemical Industries, Ltd., priority 1993, dated 1997)

Tests used:
squalene synthetase [1] = molecular target: T1, squalene synthetase (Rattus norvegicus, UniProt Q02769); assay: Squalene synthetase inhibitory activity, rat-derived enzyme (liver microsome fraction); assay type: biochemical; conditions: SD rat liver microsome fraction; 5 uM [1-3H] farnesyl pyrophosphate, 37° C., 45 minutes
T1 construct: from tissue; host or cells: rat liver microsome fraction (SD male rat, 6 weeks old)
T1 sequence (Q02769 1-416): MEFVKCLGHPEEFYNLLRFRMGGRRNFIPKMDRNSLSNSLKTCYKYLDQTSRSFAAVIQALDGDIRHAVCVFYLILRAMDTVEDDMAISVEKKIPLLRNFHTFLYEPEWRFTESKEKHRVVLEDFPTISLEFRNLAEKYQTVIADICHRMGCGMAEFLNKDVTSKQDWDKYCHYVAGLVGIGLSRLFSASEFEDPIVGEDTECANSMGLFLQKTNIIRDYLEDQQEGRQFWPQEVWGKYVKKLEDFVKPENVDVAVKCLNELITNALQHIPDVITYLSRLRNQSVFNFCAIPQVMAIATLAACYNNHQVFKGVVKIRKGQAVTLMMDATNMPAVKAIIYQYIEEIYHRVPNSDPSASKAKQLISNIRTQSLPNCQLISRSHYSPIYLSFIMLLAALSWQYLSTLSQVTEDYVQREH
Procedure: (§1) Assay Method of Squalene Synthetase Inhibitory Activity
(§2) The squalene synthetase inhibitory activity was assayed as follows with the enzyme solutions described in the subsequent Experimental Examples 1 and 2.
(§3) More specifically, an enzyme solution (protein content 0.8 ug) prepared in Experimental Example 1 or 2 was added to a solution (total volume 50 μl)) containing 5 uM [1-^3 H] farnesyl pyrophosphate (specific activity 25 uCi/mole), 1 mM NADPH, 5 mM MgCl2, 6 mM glutathione, a 100 mM buffer solution of potassium phosphate (pH 7.4) and a test drug (used as an aqueous solution or a DMSO solution), then the reaction was allowed to proceed at 37° C. for 45 minutes. To the reaction mixture was added 150 μl of a mixture of chloroform and methanol (1:2) to suspend the reaction, followed by adding 50 μl of chloroform and 50 μl of a 3N aqueous solution of sodium hydroxide. 50 μl of the chloroform layer (lower layer) containing the reaction mixture having squalene as the principal component and 3 ml of toluene-based liquid scintillator were mixed, and its radioactivity was determined by means of a liquid scintillation counter.
(§4) The squalene synthetase inhibitory activity was expressed in terms of the concentration inhibiting by 50% the radioactivity taken into the chloroform layer (IC50, molar concentration (M)).
An SD male rat (6 week old) was killed by bleeding, and its liver was excised. About 10 g of the liver was washed with a saline solution cooled with ice, which was then homogenized in 15 ml of an ice-cooled buffer solution [100 mM potassium phosphate (pH 7.4), 15 mM nicotinamide, 2 mM MgCl2 ], followed by centrifugation for 20 minutes (4° C.) with 10000×g. The supernatant layer was separated and subjected to further centrifugation for 90 minutes (4° C.) at 105000×g. The sediment was then suspended in an ice-cooled 100 mM phosphate buffer solution (pH 7.4), which was again subjected to centrifugation for 90 minutes (4° C.) at 105000×g. The sediment thus obtained (microsome fraction) was suspended in an ice-cooled 100 mM potassium phosphate buffer (pH 7.4) (about 40 mg/ml protein concentration, determined with BCA protein assay kit of Pias Co., Ltd.). This suspension was used as the enzyme solution.

squalene synthetase [2] = molecular target: T2, squalene synthetase (Homo sapiens, UniProt P37268); assay: Squalene synthetase inhibitory activity, human-derived enzyme (HepG2 microsome fraction); assay type: biochemical; conditions: 5 uM [1-3H] farnesyl pyrophosphate, 37° C., 45 minutes
T2 construct: endogenous in cells; host or cells: HepG2 (human hepatic carcinoma) cells, microsome fraction
T2 sequence (P37268 1-417): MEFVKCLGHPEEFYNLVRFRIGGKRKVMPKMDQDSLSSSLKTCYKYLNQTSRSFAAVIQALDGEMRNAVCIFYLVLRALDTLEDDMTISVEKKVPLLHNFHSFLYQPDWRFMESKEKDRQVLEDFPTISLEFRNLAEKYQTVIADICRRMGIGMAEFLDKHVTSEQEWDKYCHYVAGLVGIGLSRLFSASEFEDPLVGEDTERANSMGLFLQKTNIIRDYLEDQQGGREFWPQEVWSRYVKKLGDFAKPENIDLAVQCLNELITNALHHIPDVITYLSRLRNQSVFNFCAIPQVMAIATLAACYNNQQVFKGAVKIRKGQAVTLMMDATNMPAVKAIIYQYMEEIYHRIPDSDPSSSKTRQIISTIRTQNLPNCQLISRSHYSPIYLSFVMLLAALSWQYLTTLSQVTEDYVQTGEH
Procedure: as §1, §2, §3, §4
Human hepatic carcinoma cells HepG2 (about 1×10^9 cells) obtained by incubation in a Dulbecco-modified Eagle's medium (37° C. in the presence of 5% CO2) were suspended in 10 ml of an ice-cooled buffer solution [100 mM potassium phosphate buffer (pH 7.4), 30 mM nicotinamide and 2.5 mM MgCl2 ]. The cells were crashed by means of ultrasonication (for 30 seconds, twice). From the sonicate thus obtained, the microsome fraction was obtained by the same procedure as in Experiment Example 1, which was suspended in an ice-cooled 100 mM potassium phosphate buffer (pH 7.4) (about 4 mg/ml protein concentration). This suspension was used as the enzyme solution. The results are shown in [Table 4].

Which results are given for `COc1ccccc1C1SC(CC(=O)O)C(=O)N(CC(C)(C)C)c2ccc(Cl)cc21` (stereo not drawn) [Example 10-8, 3,5-trans-7-Chloro-5-(2-methoxyphenyl)-1-neopentyl-2-oxo-1,2,3,5-tetrahydro-4,1-benzothiazepine-3-acetic acid]?
IC50 (squalene synthetase [1]): 23 nM; IC50 (squalene synthetase [2]): 13 nM

How did the IC50 (squalene synthetase [1]) turn out when `CC(C)(C)CN1C(=O)N(CC(=O)O)CC(c2ccccc2Cl)c2cc(Cl)ccc21` (centres unmarked) [Example 53, 7-Chloro-5-(2-chlorophenyl)-1-neopentyl-2-oxo-1,2,4,5-tetrahydro-3H-1,3-benzodiazepine-3-acetic acid] was run?
Its IC50 is 290 nM.

And the IC50 (squalene synthetase [2])?
Its IC50 is 130 nM.

`CC(C)CN1C(=O)[C@@H](CC(=O)O)N[C@H](c2ccccc2Cl)c2cc(Cl)ccc21` [Example 14, (3R,5S)-1-Isobutyl-7-chloro-5-(2-chlorophenyl)-2,3,4,5-tetrahydro-2-oxo-1H-1,4-benzodiazepine-3-acetic acid] was tested. Which IC50 (squalene synthetase [1]) did it give?
Its IC50 is 430 nM.

What about the IC50 (squalene synthetase [2]) of the same molecule?
Its IC50 is 160 nM.

What does the source list for `CC(C)(C)CN1C(=O)[C@@H](CC(=O)NCC(=O)O)S[C@H](c2ccccc2Cl)c2cc(Cl)ccc21` (relative stereo) [Example 23, N-[3,5-trans-7-Chloro-5-(2-chlorophenyl)-1-neopentyl-2-oxo-1,2,3,5-tetrahydro-4,1-benzothiazepine-3-acetyl]glycine]?
IC50 (squalene synthetase [1]): 22 nM; IC50 (squalene synthetase [2]): 13 nM
